Results from article PMC10119930, “Dual Molecules Targeting 5-HT6 and GABA-A Receptors as a New Approach to Combat Depression Associated with Neuroinflammation” (ACS Chemical Neuroscience, 2023).
Values joined by “and” are separate entries in the source; they are usually repeats but may differ in a detail not shown here. Equal entries are not always repeated.

Legend:
BV-2 microglia cells [1] = assay: Evaluation of microglia morphology by fluorescence microscopy (MitoTracker) after LPS; type: cell-based, mouse; settings: 10 μM pretreatment 1 h, LPS 18 h
BV-2 microglia cells [2] = assay: Anti-inflammatory assessment in LPS-stimulated BV-2 cells (NO, ROS, IL-6, TNF-α); type: cell-based, mouse; settings: 10 μM pretreatment 1 h, then LPS 18 h
Procedure: Mouse microglial (BV-2) cell line was a generous gift from Prof. Bożena Kamińska-Kaczmarek of the Nencki Institute of Experimental Biology, Polish Academy of Sciences, Warsaw, Poland. The cell culture medium: Dulbecco’s modified with high glucose (DMEM, Glutamx ThermoFisher) and supplemented with 10% inactivated fetal bovine serum heat (ThermoFisher), 100 IU/mL penicillin (Merck) and 100 μg/mL streptomycin (Merck). Cell culture conditions: culture flasks (area 175 cm^2, Nunc), temperature of 37 °C, 5% CO2. For the assessment of the effect of tested compounds on the quantities of reactive oxygen species, nitric oxide, and inflammatory markers, the BV-2 cells were positioned in a 96-well culture plate (5 × 10^4 cells per well, Falcon). In the case of cell membrane damage assay, a 96-well culture plate (2 × 10^4 cells per well, Falcon) was used. The cells were cultured in the incubator (37 °C, 5% CO2) for 24 h prior to the assay. The tested compounds were dissolved in DMSO to achieve the concentration of 10^–2 M. Serial dilutions of the compounds were prepared in PBS and added directly to the medium containing adherent cells. The resulting mixtures were examined for any evidence of precipitation or opalescence before the assay. BV-2 cells were incubated with selected molecules (6, 16 at a concentration of 10 μM) during 1 h. Subsequently, lipopolysaccharide (100 ng/mL) was added and the resulting mixture was incubated for 18 h. Next, the culture supernatant was collected to measure the levels of nitric oxide (NO), reactive oxygen species (ROS), IL-6, and TNF-α according to the procedures described in detail below. All experiments were performed in duplicates, in three independent experiments.
The quantities of NO produced by the cells were determined using DAN reagent (2,3-diaminonaphthalene), rendering the method protocol described by Nussler et al.[48] After incubating at room temperature for 15 min, the fluorescence intensity (EX 360; EM 440 nm) was measured using a microplate reader POLARstar Omega from BMG Labtech. The amounts of NO were then calculated as a percentage of the control (which represents the maximal response of LPS). ROS measurement. The fluorescent dye 2,7-dichlorodihydrofluorescein diacetate (DCFH-DA)[49] was utilized to determine the quantity of ROS released by BV-2 cells. After a 30 min incubation period at 37 °C with 10 μM DCFH-DA, the fluorescence intensity (EX 490; EM 520 nm) was examined using a microplate reader POLARstar Omega from BMG Labtech. The amounts of ROS were then expressed as a percentage of the control (which represents the maximal response of LPS). The IL-6 and TNF-α levels detected in the culture supernatants were quantified using LANCE Ultra TR-FRET detection kit (PerkinElmer), rendering the manufacturer’s procedure. The detection of IL-6 and TNF-α was performed independently in a 384-well plate according to the instructions provided. To each well of the plate, 15 μL of sample was added followed by the addition of 5 μL of premixed antibody solution. After incubating IL-6 for 1 h and TNF-α for 3 h in the absence of light, at 22 °C, the plates were transferred to an EnVision plate reader (PerkinElmer). Measurements were conducted at 320 nm wavelength for excitation, at 615 nm for donor emission, and at 660 nm for acceptor emission. The final data were determined as the ratio of the 660 nm signal to the 615 nm signal. The results represent the levels of each cytokine determined as a percentage of control (considered as maximal cell response to LPS). The GraphPad program was used to conduct statistical analysis, with all outcomes presented as mean values with standard deviation (SD). Differences between groups were assessed using one-way ANOVA, followed by post hoc analysis (Dunnett’s multiple comparison tests). Results were considered statistically significant if the p-value was less than 0.05. […]

female Wistar rats = assay: Forced swim test in rats; type: in vivo, rat; settings: acute, ip 30 min before test
Procedure: Naïve female Wistar rats (weighing 180–200 g) were used in the study. The animals were housed in groups of three to four in standard Makrolon cages (37 cm × 21 cm × 15 cm) under strictly controlled laboratory conditions (ambient temperature 21–24 °C, relative humidity 45–65%) with a 12/12 h light–dark regime (light on at 6:00 a.m. and off at 6:00 p.m.). Animals had unrestricted access to tap water and food (typical pellets). Prior the experiment the animals were randomly appointed to the group. The behavioral studies were accomplished between 8:00 a.m. and 5:00 p.m. with the researcher blind to the study. The experiments were performed according to protocols approved by the Local Ethical Committee in Krakow (Approval Number 147/2018), Poland. Housing and experimental procedures were conducted under the European Union Directive of September 22, 2010 (2010/63/EU) and Polish legislation regarding animal studies. All efforts were made to minimize animal suffering and the number of animals used in the study.
Vortioxetine (Sigma, Germany) and the tested compounds (16 and 6) were dissolved in 10% cyclodextrin and administered ip 30 min before the test or during 14 consecutive days, with the last injection 60 min before the test. 10% cyclodextrin was administrated to control group.
A modified forced swim test was carried out according to Detke et al.[50],[51] First, the animals were individually placed inside Plexiglas cylinders, which were 40 cm high and 18 cm in diameter, filled with water at a temperature of 23–25 °C for 15 min. Afterward, the rats were transferred to a Plexiglas box and kept under a 60 W bulb for 30 min to dry. The day after, exactly 24 h later, the rats were once again placed in the cylinder, and their duration of immobility, swimming, and climbing was observed and recorded during a 5 min. The swimming behavior involved energetic movements such as horizontal swimming around the cylinder, while climbing activity referred to upward movements of the forepaws along the swim chamber’s side. Immobility was recorded when the rat only made necessary movements to keep its head above the water. For each test, a fresh water was provided. Open field test in rats: The test was conducted as previously reported by our research group.[52] The test was performed in a darkened room employing the Motor Monitor System (Campden Instruments, Ltd., U.K.). The system was equipped with two SmartFrame Open Field stations, each measuring 40 cm × 40 cm × 38 cm and consisting of 16 × 16 beams. These stations were placed inside sound-attenuating chambers and connected to a PC software using […]. The animals, belonging to either the vehicle-injected or drug-injected group, were individually positioned at the center of the station. The Motor Monitor System, which was automated, recorded the animal’s ambulation in both the X and Y axes, as well as the number of rearing and peeping episodes. Additionally, the total distance traveled by each animal during the 5 min test period was also recorded. Statistical analysis: Results are presented as the mean ± SEM values. They were estimated using one-way analysis of variance (ANOVA), followed by Newman–Keuls post hoc or unpaired two-tailed Student t test. Statistical significance was considered when p < 0.05 for differences between groups.

5-HT6 receptor [3] = biological target: T1, 5-HT6 receptor (Homo sapiens, UniProt P50406); assay: Radioligand binding assay for 5-HT6 receptor ([3H]-LSD displacement); parameters: expressed in transfected cells; host or cells: HEK-293 (cryopreserved membranes); settings: competitive replacement of [3H]-LSD; ±S.E.M.; read-out: 5-HT6R Ki
Procedure: To determine the affinity for 5-HT6, the cryopreserved membranes from HEK-293 cells stably transfected with the human recombinant 5-HT6 receptor were used.[40] Preparation of the tested compounds included preparation of stock solutions in DMSO (1 mM) and subsequent serial dilutions (10^–10–10^–5 M) of tested compounds in the appropriate buffer (50 mM Tris buffer, pH 7.4, 10 mM MgCl2, 0.5 mM ethylenediaminetetraacetic acid). The serial dilutions were acquired directly on a 96-well microplate. The reaction mix included 50 μL of appropriate concentration of tested molecule, 50 μL of [^3H]LSD 2.5/2.0 nM, and 150 μL of diluted membranes. The microplate containing the reaction mix was protected with a sealing tape and incubated for 60 min at 37 °C. Quenching of the reaction mixtire included: rapid filtration through UniFilter 96 GF/B filter microplate and rapid washes using 200 μL 50 mM assay buffer and vacuum manifold and 96-well pipettor. The collected microplates were dried overnight at 37 °C. The UniFilter bottoms were sealed, and then 30 μL of Betaplate Scint liquid scintillator (PerkinElmer) was added to each well. […] The obtained data were fit to a one-site curve-fitting equation using Prism 5 software (GraphPad Software), and the Ki values were determined using the Cheng–Prusoff equation. Radioligand binding was performed in duplicates.

[4] = biological target: muscimol site of the GABA-A receptor; assay: Radioligand binding assay for GABA-A receptor ([3H]muscimol displacement, rat brain homogenate); settings: competitive replacement of [3H]muscimol; ±S.E.M.
Procedure: The study was acquired according to the earlier protocols.[39] The rats’ brains were homogenized and prepared accurately according to the previous protocol.[39] On the day of the study, brain homogenates were thawed at room temperature and “diluted” in 20 volumes of ice-cold 50 mM Tris-HCl buffer (pH 7.4) and centrifuged (20.000g, 30 min, 0–4 °C). The assay was performed directly on 96-well microplates, which contained 50 mM Tris-HCl buffer (pH 7.4) in a total volume of 300 μL. Reaction mix included 240 μL of the brain tissue suspension, 30 μL of [^3H]-muscimol, and 30 μL solution of tested compounds (administrated at various concentrations: 10^–10–10^–5 M). […] The 96-well microplates containing the reaction mix were incubated for 10 min at 0 °C, followed by rapid filtration over glass fiber filters FilterMate B (PerkinElmer, USA) using the Harvester-96 MACH III FM (Tomtec, USA). The filter mats were dried using a microwave and then placed inside a plastic bag (PerkinElmer, USA). After that, they were soaked in 10 mL of Ultima Gold MV liquid scintillation cocktail (PerkinElmer, USA). […] Ki values were estimated according to the Cheng and Prusoff equation. The study was performed in duplicates. The statistical analysis was performed using (GraphPad Prism, version 4.0, San Diego, CA, USA).

5-HT6 receptor [5] = biological target: T1, 5-HT6 receptor; assay: Functional assay for 5-HT6 receptor, antagonist mode (aequorin, CHO-K1 cells); type: cell-based; parameters: expressed in transfected cells; host or cells: CHO-K1 (co-expressing mitochondrially targeted aequorin and G protein α16); settings: ±S.E.M., read-out: 5-HT6 R KB
Procedure: The studies were acquired according to previous protocols.[41] All the examined compounds (novel and the reference) were dissolved in DMSO (1 mM) and diluted accordingly using the assay buffer, directly in 96-well microplate. The recombinant CHO-K1 cells expressing human GPCR, mitochondrially targeted aequorin, and the promiscuous G protein α16 specific for 5-HT6 were used for the functional assay. The cells were thawed and suspended in the appropriate buffer containing DMEM/HAM’s F12 with 0.1% protease free BSA and were then centrifuged. After adding coelenterazine h to a final concentration of 5 μM, the cell pellet was resuspended in the buffer. The cell suspension was incubated at 16 °C for 16 h while being protected from light, gently shaken, and diluted with assay buffer to a concentration of 5000 cells/mL. Following that, 50 μL of the cell suspension was introduced to preloaded white opaque 96-well microplates containing the tested molecules. This was done using the automatic injectors integrated into the radiometric and luminescence plate counter MicroBeta2 LumiJET (PerkinElmer, USA). The light emission resulting from calcium mobilization was monitored for a duration of 60 s. For examination of the antagonistic properties of tested molecule, following 30 min of incubation, the reference agonist was administrated and the light emission was detected.

[6] = test system: human α1β2γ2-GABA-A receptors; assay: Electrophysiological studies, automated patch clamp (QPatch16X), HEK293 cells; type: cell-based; settings: agonist mode, compound at 10 μM; current amplitude normalized to 10 μM GABA response; ±S.E.M.
Procedure: Electrophysiological studies were acquired using the QPatch16X automatic patch clamp platform (Sophion Biosciences) as described before.[42],[43] […] Before the assay, cells were detached from the culture flask by treating them with TrypLE Express solution (Life Technologies) and subsequently suspended in serum-free media. The cells were loaded into a 1.5 mL microtube on the automated electrophysiology instrument, which subsequently performed a spin-down using its built-in centrifuge. Following this, the cells were washed with Ringer’s extracellular solution. The cells were moved to the pipetting wells of a 16-channel planar patch chip plate (QPlate 16X) designed for single-use. A combined suction/voltage protocol was then applied to establish gigaseals. […] During the entire whole-cell recording, the holding potential was maintained at −90 mV. […] The intracellular solution contained 140 mM CsF, 1 mM EGTA, 5 mM CsOH, 10 mM HEPES, 20 mMNaCl (pH 7.2, 320 mOsm). […] The acquired data were examined with QPatch assay software (v5.0, Sophion Biosciences)[44] and are represented as the mean of three separated measurements performed on distinct cells. The efficacy of the tested molecules was determined by calculating the baseline-corrected ratio of the maximum current amplitudes elicited by the tested compounds and the reference agonist (T1-ATG/AG1-ATG or T2-ATG/AG1-ATG). The raw current recordings were standardized and presented as a percentage of the current amplitude evoked by the reference agonist, using the QPatch assay software (v5.0, Sophion Biosciences).

T1 sequence (P50406 whole entry): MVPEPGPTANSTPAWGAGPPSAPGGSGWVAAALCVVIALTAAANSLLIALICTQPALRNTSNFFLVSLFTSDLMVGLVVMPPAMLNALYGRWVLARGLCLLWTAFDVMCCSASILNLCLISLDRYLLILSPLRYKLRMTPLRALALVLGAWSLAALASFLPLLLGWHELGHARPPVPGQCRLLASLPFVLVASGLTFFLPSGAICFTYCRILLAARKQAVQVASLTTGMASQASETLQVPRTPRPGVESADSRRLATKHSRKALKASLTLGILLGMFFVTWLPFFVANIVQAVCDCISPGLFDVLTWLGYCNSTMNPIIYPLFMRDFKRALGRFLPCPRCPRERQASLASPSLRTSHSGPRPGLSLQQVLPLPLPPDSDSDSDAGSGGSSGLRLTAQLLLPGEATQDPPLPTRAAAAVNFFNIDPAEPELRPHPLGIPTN

Structure (SMILES) | mitochondrial membrane potential / morphology of microglia exposed to LPS (BV-2 microglia cells [1]) | LPS-induced IL-6 production (BV-2 microglia cells [2]) | LPS-induced NO production (BV-2 microglia cells [2]) | LPS-induced ROS production (BV-2 microglia cells [2]) | LPS-induced TNF-α production (BV-2 microglia cells [2]) | immobility, climbing and swimming behaviors (female Wistar rats) | Ki (5-HT6 receptor [3]) [nM] | Ki [4] [nM] | Kb (5-HT6 receptor [5]) [nM] | [%] of 10 μM GABA activity [6]
Cc1c(OCc2ccccc2)cccc1N1CCN(CCO)CC1 [Compound 6, 2-(4-(3-(Benzyloxy)-2-methylphenyl)piperazin-1-yl)ethan-1-ol] | mitochondrial membrane potential was changed | did not change | did not change | did not change | did not change | did not influence any of the above behaviors | 8 ± 0.8 |  |  | 
Cl.Cl.NCCCC(=O)OCCN1CCN(c2cccc3c2oc(=O)n3Cc2ccccc2)CC1 [Compound 18, 1-(2-((4-Ammoniobutanoyl)oxy)ethyl)-4-(3-benzyl-2-oxo-2,3-dihydrobenzo[d]oxazol-7-yl)piperazin-1-ium Dichloride] |  |  |  |  |  |  | 130 ± 12 | 229 ± 28 | 245 ± 0.7 | 14.0% and 14.0 ± 2.6%
